The results in this text go back to patent publication EP3345917A1, “ANTIPROTOZOAL COMPOUNDS” (Bacoba AG, priority 2017, dated 2018).

The structures appear in SMILES notation. Starred links: 1 amine or outer side, 2 acyl side, 3 side chain; linkers in the order of their positions; H or OH if unused. Non-standard residues stand in square brackets, D forms with d. Residues, ends and D or L forms follow the SMILES beside them. *: point of attachment. ACHC(1S,2R) = O=C([C@H]1CCCC[C@H]1N[*:1])[*:2]; NH((S)CH(Me)CH2NMe2) = C[C@@H](CN(C)C)N*; NH(1-CH2NMe2-cBu) = CN(C)CC1(N*)CCC1; Gly(octyl) = CCCCCCCC[C@H](N)C(=O)O; Oxazole4CO(2-Me) = Cc1nc(C(=O)*)co1; X17 = C[C@@H](CN1CCOCC1)N*; Hexanoyl = CCCCCC(=O)*; Aib = CC(C)(N)C(=O)O; Bz = O=C(c1ccccc1)*; βAla = NCCC(=O)O

The subject of data set [1] is Axenically grown Leishmania donovani amastigotes (strain MHOM/ET/67/L82). The data set is described as follows: Axenic Leishmania donovani amastigote resazurin assay. It counts as cell-based. Conditions: In vitro inhibition, read-out: L.don. ax. The procedure: (§1) Tests were done in triplicate.
Axenically grown Leishmania donovani amastigotes (strain MHOM/ET/67/L82) were grown and tests were done as previously described using the resazurin assay (Räz B et al. Acta Tropica 1997, 68:139-147). The plates were developed for 2-4 hours and read on a Spectramax Gemini XS micro plate fluorometer (Molecular Devices Cooperation) using an excitation wavelength of 536 nm and emission wavelength of 588 nm. Fluorescence development was measured and expressed as percentage of the negative control. […] Data were transferred to the graphic programme Softmax Pro (Molecular Devices), with which IC50 values were calculated.
On the technique in general: Resazurin is reduced to fluorescent resorufin, in cell work by metabolically active cells.

In data set [2] the test system is Trypanosoma brucei rhodesiense (STIB 900 strain). The data set is described as follows: Alamar Blue assay against Trypanosoma brucei rhodesiense grown in axenic medium. Conditions: In vitro inhibition, read-out: T.b.rhod. The data set is classed as cell-based. The method, then:
as §1
Trypanosoma brucei rhodesiense (STIB 900) were grown in axenic medium as described by Baltz et al. (1985) The samples were tested using the Alamar Blue assay protocol (Baltz T et al. EMBO J 1985; 4:1273-1277) to determine the 50% inhibitory concentration (IC50). […] Melarsoprol (Arsobal®, Sanofi-Aventis, Switzerland) was used as a reference drug (IC50= 0.03 ± 0.01 µM). Its purity was over 95 %, as was certified by the supplier. The IC50 values were calculated by using Softmax Pro software (Molecular Devices Cooperation, Sunnyvale, CA).

Data set [3] in a line: Cytotoxicity assay on L6-cells (Alamar Blue). Conditions: rat, Cytotox L6, Cytotoxicity against rat myoblast cells (L6).
In data set [4] the test system is Trypanosoma cruzi trypomastigote forms (Tulahuen strain). The data set is described as follows: Intracellular Trypanosoma cruzi assay in L6-cells, beta-galactosidase/CPRG readout. It counts as cell-based. The settings on record: In vitro inhibition, read-out: T.cruzi. The method, then: as §1
Trypanosoma cruzi trypomastigote forms (Tulahuen strain C2C4 containing β-galactosidase (Lac Z) gene) were cultured as described by Buckner et al. (Buckner FS et al. Antimicrob Agents Ch1996; 40: 2592-2597) in rat myoblast cells (L6-cells). […] After incubation, the substrate chlorophenyl red β-D-galactopyranoside agent CPRG/Nonident was added to all wells and a color change was developed within 2 to 6 h. The plates were read photometrically at 540 nm (Molecular Devices). Data were evaluated and IC50 values calculated using Softmax Pro software (Molecular Devices).

In data set [5] the test system is Plasmodium falciparum. The data set is described as follows: 3H-hypoxanthine incorporation assay against Plasmodium falciparum. The data set is classed as cell-based. The settings on record: In vitro inhibition, read-out: P.falc NF5. The method, then: as §1
IC50 values were calculated by linear interpolation.

Consider `CCCCCCCC[C@H](NC(=O)[C@@H]1CCCN1C(=O)CCCCC)C(=O)N[C@@H](CC(C)C)C(=O)NC(C)(C)C(=O)N[C@@H](CC(C)C)C(=O)N[C@@H](CC(C)C)C(=O)NC(C)(C)C(=O)NC(C)(C)C(=O)NCCC(=O)NC1(CN(C)C)CCC1` [Compound 5882, (2S)-N-[(1S)-1-[(1-{[(1S)-1-{[(1S)-1-({1-[(1-{[2-({1-[(dimethylamino)methyl]cyclobutyl}carbamoyl)ethyl]carbamoyl}-1-methylethyl)carbamoyl]-1-methylethyl}carbamoyl)-3-methylbutyl]carbamoyl}-3-methylbutyl]carbamoyl}-1-methylethyl)carbamoyl]-3-methylbutyl]-2-{[(2S)-1-hexanoylpyrrolidin-2-yl]formamido}decanamide] (Hexanoyl-P[Gly(octyl)]L[Aib]LL[Aib][Aib][βAla]-{NH(1-CH2NMe2-cBu)}), for which the IC50 turned out to be 46800 nM in data set [1], 20500 nM in data set [2], 42600 nM in data set [4] and 0.9 nM in data set [5]. For the same compound, the IC50 at 70 h in data set [3] came out at 44.1 nM.

`CCCCCCCC[C@H](NC(=O)[C@@H]1CCCN1C(=O)CCCCC)C(=O)N[C@H](C(=O)N[C@@H](CC(C)C)C(=O)NC(C)(C)C(=O)NC(C)(C)C(=O)NCCC(=O)N[C@@H](C)CN(C)C)[C@@H](C)O` [Compound 5596, (2S)-N-[(1S,2R)-1-{[(1S)-1-{[1-({1-[(2-{[(2S)-1-(dimethylamino)propan-2-yl]carbamoyl}ethyl)carbamoyl]-1-methylethyl}carbamoyl)-1-methylethyl]carbamoyl}-3-methylbutyl]carbamoyl}-2-hydroxypropyl]-2-{[(2S)-1-hexanoylpyrrolidin-2-yl]formamido}decanamide] (Hexanoyl-P[Gly(octyl)]TL[Aib][Aib][βAla]-{NH((S)CH(Me)CH2NMe2)}): the IC50 in data set [1] was found to be 791 nM; in data set [2], 667 nM; in data set [4], 7740 nM; in data set [5] it was 1240 nM. In data set [3], this compound had an IC50 at 70 h of 5030 nM.

Turning to `CCCCCCCC[C@H](NC(=O)[C@H]1CCCC[C@H]1NC(=O)c1ccccc1)C(=O)N[C@@H](CC(C)C)C(=O)NC(C)(C)C(=O)N[C@@H](CC(C)C)C(=O)N[C@@H](CC(C)C)C(=O)NC(C)(C)C(=O)NC(C)(C)C(=O)NCCC(=O)N[C@@H](C)CN(C)C` [Compound 5982, N-[(1R,2S)-2-{[(1S)-1-{[(1S)-1-[(1-{[(1S)-1-{[(1S)-1-{[1-({1-[(2-{[(2S)-1-(dimethylamino)propan-2-yl]carbamoyl}ethyl)carbamoyl]-1-methylethyl}carbamoyl)-1-methylethyl]carbamoyl}-3-methylbutyl]carbamoyl}-3-methylbutyl]carbamoyl}-1-methylethyl)carbamoyl]-3-methylbutyl]carbamoyl}nonyl]carbamoyl}cyclohexyl]benzamide] (Bz-[ACHC(1S,2R)][Gly(octyl)]L[Aib]LL[Aib][Aib][βAla]-{NH((S)CH(Me)CH2NMe2)}), the IC50 in data set [1] was 0.9 nM; in data set [2], 29200 nM; in data set [4] it was 47.1 nM; in data set [5], 12100 nM. The IC50 at 70 h in data set [3] was found to be 573 nM.

For the compound `CCCCCC(=O)N1CCC[C@H]1C(=O)N[C@@H](CCCCNC(C)=O)C(=O)N[C@@H](CC(C)C)C(=O)NC(C)(C)C(=O)N[C@@H](CC(C)C)C(=O)N[C@@H](CC(C)C)C(=O)NC(C)(C)C(=O)NC(C)(C)C(=O)NCCC(=O)N[C@@H](C)CN(C)C` [Compound 5766, (2S)-N-[(1S)-1-[(1-{[(1S)-1-{[(1S)-1-{[1-({1-[(2-{[(2S)-1-(dimethylamino)propan-2-yl]carbamoyl}ethyl)carbamoyl]-1-methylethyl}carbamoyl)-1-methylethyl]carbamoyl}-3-methylbutyl]carbamoyl}-3-methylbutyl]carbamoyl}-1-methylethyl)carbamoyl]-3-methylbutyl]-6-acetamido-2-{[(2S)-1-hexanoylpyrrolidin-2-yl]formamido}hexanamide] (Hexanoyl-PK(Ac)L[Aib]LL[Aib][Aib][βAla]-{NH((S)CH(Me)CH2NMe2)}), the IC50 turned out to be 752 nM in data set [1], 3 nM in data set [2], 3780 nM in data set [4] and 135 nM in data set [5]. In data set [3], this compound showed an IC50 at 70 h of 4870 nM.

For the compound `CCCCCCCC[C@H](NC(=O)[C@H](C)NC(=O)CCCCC)C(=O)N[C@H](C(=O)NC(C)(C)C(=O)N[C@@H](CC(C)C)C(=O)N[C@@H](CC(C)C)C(=O)NC(C)(C)C(=O)NC(C)(C)C(=O)NCCC(=O)N[C@@H](C)CN(C)C)[C@@H](C)O` [Compound 5605, (2S)-N-[(1S,2R)-1-[(1-{[(1S)-1-{[(1S)-1-{[1-({1-[(2-{[(2S)-1-(dimethylamino)propan-2-yl]carbamoyl}ethyl)carbamoyl]-1-methylethyl}carbamoyl)-1-methylethyl]carbamoyl}-3-methylbutyl]carbamoyl}-3-methylbutyl]carbamoyl}-1-methylethyl)carbamoyl]-2-hydroxypropyl]-2-[(2S)-2-hexanamidopropanamido]decanamide] (Hexanoyl-A[Gly(octyl)]T[Aib]LL[Aib][Aib][βAla]-{NH((S)CH(Me)CH2NMe2)}), the IC50 in data set [1] was determined as 78.6 nM; in data set [2], 22.8 nM; in data set [4], 1840 nM; in data set [5] it was 39.3 nM. In addition, the IC50 at 70 h in data set [3] came to 2480 nM.

`CCCCCCCC[C@H](NC(=O)[C@@H]1CCCN1C(=O)CCCCC)C(=O)N[C@@H](CC(C)C)C(=O)NC(C)(C)C(=O)N[C@@H](CC(C)C)C(=O)N[C@@H](CC(C)C)C(=O)NC(C)(C)C(=O)NC(C)(C)C(=O)NCCC(=O)N[C@@H](C)CN1CCOCC1` [Compound 5981, (2S)-2-{[(2S)-1-hexanoylpyrrolidin-2-yl]formamido}-N-[(1S)-3-methyl-1-[(1-methyl-1-{[(1S)-3-methyl-1-{[(1S)-3-methyl-1-{[1-methyl-1-({1-methyl-1-[(2-{[(2S)-1-(morpholin-4-yl)propan-2-yl]carbamoyl}ethyl)carbamoyl]ethyl}carbamoyl)ethyl]carbamoyl}butyl]carbamoyl}butyl]carbamoyl}ethyl)carbamoyl]butyl]decanamide] (Hexanoyl-P[Gly(octyl)]L[Aib]LL[Aib][Aib][βAla]-X17): the IC50 worked out at 0.2 nM in data set [1], 17.9 nM in data set [2], 723 nM in data set [4] and 35800 nM in data set [5]. The compound further yielded an IC50 at 70 h in data set [3] of 1080 nM.

Take `CCCCCCCC[C@H](NC(=O)[C@@H]1CCCN1C(=O)c1coc(C)n1)C(=O)N[C@@H](CC(C)C)C(=O)NC(C)(C)C(=O)N[C@@H](CC(C)C)C(=O)N[C@@H](CC(C)C)C(=O)NC(C)(C)C(=O)N[C@@H](CC(C)C)C(=O)NCCC(=O)NC1(CN(C)C)CCC1` [Compound 6329, (2S)-N-[(1S)-1-[(1-{[(1S)-1-{[(1S)-1-[(1-{[(1S)-1-{[2-({1-[(dimethylamino)methyl]cyclobutyl}carbamoyl)ethyl]carbamoyl}-3-methylbutyl]carbamoyl}-1-methylethyl)carbamoyl]-3-methylbutyl]carbamoyl}-3-methylbutyl]carbamoyl}-1-methylethyl)carbamoyl]-3-methylbutyl]-2-{[(2S)-1-(2-methyl-1,3-oxazole-4-carbonyl)pyrrolidin-2-yl]formamido}decanamide] ({Oxazole4CO(2-Me)}-P[Gly(octyl)]L[Aib]LL[Aib]L[βAla]-{NH(1-CH2NMe2-cBu)}): the IC50 came out at 0.17 nM in data set [1], 0.08 nM in data set [2], 4.6 nM in data set [4] and 0.17 nM in data set [5]. Besides, in data set [3], the IC50 at 70 h is 398 nM.
